In PubChem BioAssay (NCI):
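A five-concentration, 48-hour dose response in 96-well plates underlies each endpoint, interpolated linearly between surrounding concentrations. Definition used: TGI = concentration required for complete inhibition of growth.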

How the values were obtained:
Assay in all cases: NCI tumour cell line growth inhibition, 48 h
[1] = system: LOX IMVI melanoma
[2] = system: MDA-MB-435
[3] = system: HCT-116 colon
[4] = system: HOP-62 NSCLC
[5] = system: SF-268 CNS
[6] = system: OVCAR-8 ovarian
[7] = system: UO-31 renal
[8] = system: HOP-92 NSCLC
[9] = system: NCI-H23 lung
[10] = system: CAKI-1 renal
[11] = system: NCI-H226 lung
[12] = system: RXF 393 renal
[13] = system: A549 NSCLC
[14] = system: SK-MEL-5 melanoma
[15] = system: SK-MEL-28 melanoma
[16] = system: OVCAR-3 ovarian
[17] = system: SR leukemia
[18] = system: SK-MEL-2 melanoma
[19] = system: NCI-H522 lung
[20] = system: SF-295 CNS
[21] = system: HS 578T breast
[22] = system: BT-549 breast
[23] = system: NCI/ADR-RES ovarian
[24] = system: SN12C renal
[25] = system: EKVX NSCLC
[26] = system: MOLT-4 leukemia
[27] = system: SW-620 colon
[28] = system: SNB-75 CNS
[29] = system: COLO 205 colon
[30] = system: MDA-MB-231 breast
[31] = system: HCC-2998 colon
[32] = system: SF-539 CNS
[33] = system: DU-145 prostate
[34] = system: MCF7 breast
[35] = system: UACC-62 melanoma
[36] = system: T-47D breast
[37] = system: ACHN renal
[38] = system: MALME-3M melanoma
[39] = system: 786-0 renal
[40] = system: IGROV1 ovarian
[41] = system: HT29 colon
[42] = system: RPMI-8226 leukemia
[43] = system: CCRF-CEM leukemia
[44] = system: A498 renal
[45] = system: PC-3 prostate
[46] = system: NCI-H460 lung
[47] = system: SK-OV-3 ovarian
[48] = system: HCT-15 colon
[49] = system: M14 melanoma
[50] = system: KM12 colon
[51] = system: SNB-19 CNS
[52] = system: U251 CNS
[53] = system: HL-60(TB) leukemia
[54] = system: UACC-257 melanoma
[55] = system: K-562 leukemia
[56] = system: TK-10 renal
[57] = system: MDA-N
[58] = system: OVCAR-4 ovarian
[59] = system: OVCAR-5 ovarian
[60] = system: DMS 273 small cell lung
[61] = system: KM20L2 colon
[62] = system: DMS 114 small cell lung
[63] = system: SNB-78 CNS

Compound: CCOC(=O)C(NC(=O)CC)(Nc1ccc(S(=O)(=O)Nc2ccc(OC)nn2)cc1)C(F)(F)F (configuration not stated)
- TGI [1]: > 100 µM
- TGI [2]: > 100 µM
- TGI [3]: > 100 µM
- TGI [4]: > 100 µM
- TGI [5]: > 100 µM
- TGI [6]: > 100 µM
- TGI [7]: > 100 µM
- TGI [8]: > 100 µM
- TGI [9]: > 100 µM
- TGI [10]: > 100 µM
- TGI [11]: > 100 µM
- TGI [12]: > 100 µM
- TGI [13]: > 100 µM
- TGI [14]: > 100 µM
- TGI [15]: > 100 µM
- TGI [16]: > 100 µM
- TGI [17]: > 100 µM
- TGI [18]: > 100 µM
- TGI [19]: > 100 µM
- TGI [20]: > 100 µM
- TGI [21]: > 100 µM
- TGI [22]: > 100 µM
- TGI [23]: > 100 µM
- TGI [24]: > 100 µM
- TGI [25]: > 100 µM
- TGI [26]: > 100 µM
- TGI [27]: > 100 µM
- TGI [28]: > 100 µM
- TGI [29]: > 100 µM
- TGI [30]: > 100 µM
- TGI [31]: > 100 µM
- TGI [32]: > 100 µM
- TGI [33]: > 100 µM
- TGI [34]: > 100 µM
- TGI [35]: > 100 µM
- TGI [36]: > 100 µM
- TGI [37]: > 100 µM
- TGI [38]: > 100 µM
- TGI [39]: > 100 µM
- TGI [40]: > 100 µM
- TGI [41]: > 100 µM
- TGI [42]: > 100 µM
- TGI [43]: > 100 µM
- TGI [44]: > 100 µM
- TGI [45]: > 100 µM
- TGI [46]: > 100 µM
- TGI [47]: > 100 µM
- TGI [48]: > 100 µM
- TGI [49]: > 100 µM
- TGI [50]: > 100 µM
- TGI [51]: > 100 µM
- TGI [52]: > 100 µM
- TGI [53]: > 100 µM
- TGI [54]: > 100 µM
- TGI [55]: > 100 µM
- TGI [56]: > 100 µM
- TGI [57]: > 100 µM
- TGI [58]: > 100 µM
- TGI [59]: > 100 µM

Compound: ClC1c2ccccc2C2(c3ccccc3)OOC1(c1ccccc1)O2 (configuration not stated)
- TGI [1]: 1.31 µM
- TGI [4]: 22.9 µM
- TGI [5]: 4.19 µM
- TGI [6]: 5.16 µM
- TGI [7]: 3.06 µM
- TGI [8]: 0.987 µM
- TGI [9]: 3.57 µM
- TGI [10]: 6.19 µM
- TGI [11]: 4.08 µM
- TGI [12]: 2.83 µM
- TGI [13]: 3.64 µM
- TGI [14]: 2.83 µM
- TGI [15]: 3.8 µM
- TGI [60]: 3.17 µM
- TGI [16]: 3.3 µM
- TGI [17]: 3.4 µM
- TGI [18]: 5.64 µM
- TGI [19]: 0.8 µM
- TGI [20]: 5.85 µM
- TGI [24]: 2.9 µM
- TGI [25]: 4.62 µM
- TGI [26]: 3.56 µM
- TGI [61]: 3.26 µM
- TGI [27]: 2.96 µM
- TGI [28]: 3.27 µM
- TGI [29]: 4.58 µM
- TGI [62]: 0.725 µM
- TGI [31]: 6.24 µM
- TGI [63]: 3.19 µM
- TGI [32]: 5.01 µM
- TGI [35]: 3.66 µM
- TGI [37]: 2.89 µM
- TGI [38]: 7.14 µM
- TGI [39]: 2.98 µM
- TGI [41]: 3.69 µM
- TGI [42]: 3.17 µM
- TGI [44]: 4.45 µM
- TGI [46]: 3.13 µM
- TGI [48]: 3.24 µM
- TGI [49]: 2.76 µM
- TGI [50]: 3.63 µM
- TGI [51]: 3.21 µM
- TGI [52]: 3.59 µM
- TGI [53]: 0.309 µM
- TGI [54]: 3.65 µM
- TGI [56]: 4.4 µM
- TGI [58]: 3.08 µM
- TGI [59]: 11.2 µM
